How the values were obtained:
Lucilia cuprina larvae = assay: Blowfly larvae test/development-inhibitory action; format: in vivo; settings: active compound concentration of 100 ppm; 100% means that none of the flies have hatched
Procedure: Blowfly larvae test/development-inhibitory action
Test animals: Lucilia cuprina larvae
Solvent: Dimethylsulfoxide
20 mg of active compound are dissolved in 1 ml of dimethyl suiphoxide, and more dilute concentrations are prepared by dilution with dist. water.
Approximately 20 Lucilia cuprina larvae are introduced into a test tube which contains approximately 1 cm^3 of horse meat and 0.5 ml of the active compound preparation to be tested. After 24 and 48 hours, the efficacy of the preparation of active compound is determined. The test tubes are transferred into a beaker with sand-covered bottom. After a further 2 days, the test tubes are removed and the pupae are counted.
The effect of the preparation of active compound is assessed by the number of the flies which have hatched after 1.5 times the development time of an untreated control. 100% means that none of the flies have hatched; 0% means that all flies have hatched normally.

[1] = tested on: caterpillars of the army worm (Spodoptera frugiperda); assay: Spodoptera frugiperda test; format: in vivo; settings: active compound concentration of 0.1%, after 7 days, dipped cabbage leaves
Procedure: Spodoptera frugiperda test
(§1) Solvent: 7 parts by weight of dimethylformamide
(§2) Emulsifier: 1 part by weight of alkylaryl polyglycol ether
To prepare a suitable preparation of active compound, 1 part by weight of active compound is mixed with the stated amount of solvent and emulsifier, and the concentrate is diluted with water to the desired concentration.
Cabbage leaves (Brassica oleracea) are treated by being dipped into the preparation of active compound of the desired concentration and populated with caterpillars of the army worm (Spodoptera frugiperda) while the leaves are still moist.
After the desired period of time, the kill in % is determined. 100% means that all caterpillars have been killed; 0% means that none of the caterpillars have been killed.

[2] = tested on: all stages of the greenhouse red spider mite (Tetranychus urticae); assay: Tetranychus test (OP-resistant/dip treatment); format: in vivo
Procedure: Tetranychus test (OP-resistant/dip treatment)
as §1, §2
To produce a suitable preparation of active compound, 1 part by weight of active compound is mixed with the stated amount of solvent and emulsifier, and the concentrate is diluted with emulsifier-containing water to the desired concentration.
Bean plants (Phaseolus vulgaris) which are heavily infested by all stages of the greenhouse red spider mite (Tetranychus urticae) are dipped into a preparation of active compound of the desired concentration.
After the desired period of time, the effect in % is determined. 100% means that all spider mites have been killed, 0% means that none of the spider mites have been killed.

[3] = tested on: mustard beetle larvae (Phaedon cochleariae); assay: Phaedon larvae test; format: in vivo; settings: active compound concentration of 0.1%, after 7 days, dipped cabbage leaves
Procedure: Phaedon larvae test Solvent: 7 parts by weight of dimethylfornamide Emulsifier: 1 part by weight of alkylaryl polyglycol ether To produce a suitable preparation of active compound, 1 part by weight of active compound is mixed with the stated amount of solvent and emulsifier, and the concentrate is diluted with water to the desired concentration. Cabbage leaves (Brassica oleracea) are treated by being dipped into the preparation of active compound of the desired concentration and populated with mustard beetle larvae (Phaedon cochleariae) while the leaves are still moist.

[4] = active compound concentration of 0.01%, after 7 days, dipped bean plants

Compound	efficacy (Lucilia cuprina larvae)	melting point	kill [1]	kill ([2]; 168 h)	kill [3]	kill [2, 4]
CCOC(=O)N1CC(c2ccc(-c3ccc(OC(F)(F)F)cc3)cc2)N=C1c1c(F)cccc1F (stereo not drawn) [Example I-3, 1-ethoxycarbonyl4-(4′-trifluoromethoxy-4-biphenylyl)-2-(2,6-difluoro-phenyl)-4,5-dihydro-1H-imidazole]	100%	105 to 107 °C	100%	100%		
CCOC(=O)N1CC(c2ccc(-c3ccc(OC(F)(F)F)cc3)cc2)N=C1c1ccccc1Cl (stereo not drawn) [Example I-4, 2-(2-chlorophenyl)-1-ethoxycarbonyl-4-(4′-trifluormethoxy-4-biphenylyl)-4,5-dihydro-1H-imidazole]			100%		100%	
N#CN1CC(c2ccc(-c3ccc(OC(F)(F)F)cc3)cc2)N=C1c1c(F)cccc1F (stereo not drawn) [Example I-5a, 1-cyano-4-(4′-trifluoromethoxy-4-biphenylyl)-2-(2,6-difluorophenyl)-4,5-dihydro-1H-imidazole]		123 to 124 °C	100%		100%	100%
N#CN1C(c2c(F)cccc2F)=NCC1c1ccc(-c2ccc(OC(F)(F)F)cc2)cc1 (stereo not drawn) [Example I-5b, 3-cyano-4-(4′-trifluoromethoxy-4-biphenylyl)-2-(2,6-difluorophenyl)-4,5-dihydro-3H-imidazole]			100%		100%	100%
CCOCN1CC(c2ccc(-c3ccc(OC(F)(F)F)cc3)cc2)N=C1c1c(F)cccc1F (stereo not drawn) [Example I-6a, 1-ethoxymethyl-4-(4′-trifluoromethoxy-4-biphenylyl)-2-(2,6-difluorophenyl)-4,5-di-hydro-1H-imidazole]			100%		100%	100%
CCOCN1C(c2c(F)cccc2F)=NCC1c1ccc(-c2ccc(OC(F)(F)F)cc2)cc1 (stereo not drawn) [Example I-6b, 3-ethoxymethyl-4-(4′-trifluoromethoxy-4-biphenylyl)-2-(2,6-difluorophenyl)-4,5-di-hydro-3H-imidazole]					100%	
CC(=O)N1CC(c2ccc(-c3ccc(OC(F)(F)F)cc3)cc2)N=C1c1c(F)cccc1F (stereo not drawn) [Example I-7a, 1-acetyl-4-(4′-trifluoromethoxy-4-biphenylyl)-2-(2,6-difluorophenyl)-4,5-dihydro-1H-imidazole]			100%		90%	100%
NC(=S)N1CC(c2ccc(-c3ccc(OC(F)(F)F)cc3)cc2)N=C1c1c(F)cccc1F (stereo not drawn) [Example I-8, 4-(4′-trifluoromethoxy4-biphenylyl)-2-(2,6-difluorophenyl)-1-thiocarbamoyl-4,5-dihydro-1H-imidazole]		93 to 95 °C	100%		100%	95%

From patent publication US6380237B1, “Diphenylimidazolines” (Bayer Aktiengesellschaft, priority 1998, dated 2002)
